EP0508792A1, “Anti-tumor and anti-psoriatic agents” (SCHERING CORPORATION, priority 1991, dated 1992)

These compounds were tested against PKC (assay: Mixed micellar protein kinase C (PKC) assay, in vitro inhibition of PKC). Details: partially purified rat brain PKC; histone III-S substrate; 23°C, 15 minutes; 2% DMSO.
Type: biochemical
Protocol: The below listed Test Methods A and B were run in accordance with the procedures described in Bishop, W.R., Petrin, J., Wang, L., Ramesh, U., and Doll, R.J. (1990) Biochemical Pharmacology 40: No. 9, pp. 2129-2135 and Hannun et al, J. Biol. Chem. 260, 10039-10043, (1985), which are herein incorporated by reference.The following modifications were made in this procedure:
A. Protein Kinase C ("PKC") Protocol
Mixed micellular protein kinase C assays were conducted by the methods described in the two articles cited just above, (namely, Bishop et al, and Hannun et al), in a reaction mixture (0.25 mL total volume) containing: 20 mM Tris-HCl (pH 7.5); […] histone III-S; 10 mM MgCl2; 5 mM [g-32P]ATP (4 x 10^6 cpm/nmol); […] CaCl2; 32 mg/mL of phosphatidylserine; […] of 1-oleoyl-2-acetyl-glycerol and various concentrations of compounds of this invention added from a dimethyl-sulfoxide (DMSO) stock solution. The final concentration of DMSO in the reaction was 2% w/v. Reactions were started by addition of approximately […] of partially purified rat brain PKC and allowed to proceed at 23°C for 15 minutes. Reactions were terminated by collection of trichloroacetic acid-precipitated phosphorylated histone on GF/C filters using a Brandel Cell Harvester (Model No. M-24-R).

| IC50 | SMILES |
| --- | --- |
| 230 nM | O=C(NC[C@@H]1C[C@@H]2O[C@H]1n1c3ccccc3c3c4c(c5c6ccccc6n2c5c31)C(=O)NC4=O)c1ccccc1 (relative stereo) [Example 46] |
| 7 nM | O=C1NC(=O)c2c1c1c3ccccc3n3c1c1c2c2ccccc2n1[C@@H]1O[C@H]3C[C@H]1Cn1ccnc1 (relative stereo) [Example 48] |
| 4 nM | CN(C)C[C@@H]1C[C@@H]2O[C@H]1n1c3ccccc3c3c4c(c5c6ccccc6n2c5c31)C(=O)NC4=O (relative stereo) [Example 49] |
| 23 nM | Cc1ccc2c(c1)c1c3c(c4c5cc(C)ccc5n5c4c1n2[C@@H]1C[C@@H](CO)[C@H]5O1)C(=O)NC3=O (relative stereo) [Example 57] |
| 23 nM | Cc1ccc2c(c1)c1c3c(c4c5cc(C)ccc5n5c4c1n2[C@@H]1C[C@H](CO)[C@H]5O1)C(=O)NC3=O (relative stereo) [Example 58] |
| 19 nM | CC(C)(C)OC(=O)CNC(=O)[C@@H]1C[C@@H]2O[C@H]1n1c3ccccc3c3c4c(c5c6ccccc6n2c5c31)C(=O)NC4=O (relative stereo) [Example 64] |
| 0.5 nM | CNC(=O)[C@@H]1C[C@@H]2O[C@H]1n1c3ccccc3c3c4c(c5c6ccccc6n2c5c31)C(=O)NC4=O (relative stereo) [Example 65] |
| 20 nM | O=C1NC(=O)c2c1c1c3ccccc3n3c1c1c2c2ccccc2n1[C@@H]1O[C@H]3C[C@H]1C(=O)NCc1ccccc1 (relative stereo) [Example 66] |
| 0.6 nM | NC(=O)[C@@H]1C[C@@H]2O[C@H]1n1c3ccccc3c3c4c(c5c6ccccc6n2c5c31)C(=O)NC4=O (relative stereo) [Example 67] |
| 1 nM | CN(C)C(=O)[C@@H]1C[C@@H]2O[C@H]1n1c3ccccc3c3c4c(c5c6ccccc6n2c5c31)C(=O)NC4=O (relative stereo) [Example 68] |
| 0.8 nM | O=C(O)CNC(=O)[C@@H]1C[C@@H]2O[C@H]1n1c3ccccc3c3c4c(c5c6ccccc6n2c5c31)C(=O)NC4=O (relative stereo) [Example 69] |

Continued, compound first:

| SMILES | IC50 |
| --- | --- |
| Cc1ccc2c(c1)c1c3c(c4c5cc(C)ccc5n5c4c1n2[C@@H]1CC[C@H]5O1)C(=N)NC3=O (relative stereo) [Example 29] | 42 nM |
| O=C1NC(=O)c2c1c1c3ccccc3n3c1c1c2c2ccccc2n1[C@@H]1O[C@H]3C[C@@H]1CO (relative stereo) [Example 35] | 7.5 nM |
| O=C1NC(=O)c2c1c1c3ccccc3n3c1c1c2c2ccccc2n1[C@@H]1O[C@H]3C[C@H]1CO (relative stereo) [Example 36] | 10 nM |
| NC(=O)[C@H]1C[C@@H]2O[C@H]1n1c3ccccc3c3c4c(c5c6ccccc6n2c5c31)C(=O)NC4=O (relative stereo) [Example 37] | 115 nM |
| CO[C@H]1C[C@@H]2O[C@H]1n1c3ccccc3c3c4c(c5c6ccccc6n2c5c31)C(=O)NC4=O (relative stereo) [Example 38] | 1.4 nM |
| CS(=O)(=O)OC[C@H]1C[C@@H]2O[C@H]1n1c3ccccc3c3c4c(c5c6ccccc6n2c5c31)C(=O)NC4=O (relative stereo) [Example 39] | 5 nM |
| CS(=O)(=O)OC[C@@H]1C[C@@H]2O[C@H]1n1c3ccccc3c3c4c(c5c6ccccc6n2c5c31)C(=O)NC4=O (relative stereo) [Example 40] | 15 nM |
| [N-]=[N+]=NC[C@H]1C[C@@H]2O[C@H]1n1c3ccccc3c3c4c(c5c6ccccc6n2c5c31)C(=O)NC4=O (relative stereo) [Example 41] | 7.5 nM |
| NC[C@@H]1C[C@@H]2O[C@H]1n1c3ccccc3c3c4c(c5c6ccccc6n2c5c31)C(=O)NC4=O (relative stereo) [Example 45] | 13 nM |
| O=C1NC(=O)c2c1c1c3ccccc3n3c1c1c2c2ccccc2n1[C@@H]1O[C@H]3C[C@H]1C(=O)O (relative stereo) [Example 63] | 20 nM |
| S=C1NC(=S)c2c1c1c3ccccc3n3c1c1c2c2ccccc2n1[C@H]1CC[C@@H]3O1 [Example 25] | 13 nM |
| O=C1NC(O)c2c1c1c3ccccc3n3c1c1c2c2ccccc2n1[C@H]1CC[C@@H]3O1 (stereo partly drawn) [Example 26] | 19 nM |
| Cc1ccc2c(c1)c1c(Br)c(Br)c3c4cc(C)ccc4n4c3c1n2[C@@H]1CC[C@H]4O1 [Example 27] | 18 nM |
| Cc1ccc2c(c1)c1c(C#N)c(C#N)c3c4cc(C)ccc4n4c3c1n2[C@@H]1CC[C@H]4O1 [Example 28] | 58 nM |
| Cc1ccc2c(c1)c1c3c(c4c5cc(C)ccc5n5c4c1n2[C@@H]1CC[C@H]5O1)C(=O)NC3=O [Example 30] | 50 nM |

These compounds were tested on Normal Human Keratinocytes (NHEK) (assay: 3H thymidine uptake in normal human keratinocytes (NHEK)). Details: Homo sapiens, 20 h; dose response study, 3H thymidine uptake in NHEK; read-out: IC₅₀.
Type: cell-based
Protocol: ^3H Thymidine Uptake in Normal Human Keratinocytes (NHEK): Effects of Compounds of the Invention
Second passage NHEK cells grown in MCDB 153 media with a 5% CO2 air mixture at 37° were used for experiments. Compounds of the invention which were tested were prepared at 5mM stock solutions in DMSO. Cells were grown to 60-80% confluency in 6 well trays. Compounds were added to give a concentration of 5x10⁻⁶ molar and cultures were simultaneously pulsed with 1 microCurie/mL ^3H thymidine for 20 hours. Cells were then harvested and tritium was counted using a liquid scintillation counter; results are the average of 8 wells per compound. In the control, when no compound is employed, there is 0% inhibition of thymidine uptake.
A dose response study of the compound from Example 35, using the just above described test was conducted. Concentrations of the compound from Example 35 ranging from 5x10⁻⁵ to 5x10⁻⁶ M in tenfold dilutions were conducted.

| SMILES | IC50 |
| --- | --- |
| O=C1NC(=O)c2c1c1c3ccccc3n3c1c1c2c2ccccc2n1[C@@H]1O[C@H]3C[C@@H]1CO (relative stereo) [Example 35] | 1720 nM |

Same assay, conditions: compound at 5x10⁻⁶ molar; 3H thymidine pulse 20 hours; average of 8 wells

| SMILES | % Inhibition of Control |
| --- | --- |
| O=C1NCc2c1c1c3ccccc3n3c1c1c2c2ccccc2n1C1CCC3O1 (racemic) [Example 23] | 78.8% |
| O=C1NC(=O)c2c1c1c3ccccc3n3c1c1c2c2ccccc2n1[C@@H]1O[C@H]3C[C@@H]1CO (relative stereo) [Example 35] | 99.2% |
| O=C1NC(=O)c2c1c1c3ccccc3n3c1c1c2c2ccccc2n1[C@H]1CC[C@@H]3O1 [Example 22] | 77.3% |
